Data reported in paper PMC11539907, “Cytotoxicity of norstictic acid derivatives, a depsidone from Ramalina anceps Nyl” (Turkish Journal of Chemistry, 2024).
Entries after “also recorded” stand apart in the source; their conditions may differ. Like-named read-outs stand apart in the source and are kept apart here.

Experiments:
[1] = system: 786-0 (kidney carcinoma) cells; experiment: sulforhodamine B (SRB) cytotoxicity assay, 786-0; format: cell-based; conditions: for selectivity index (SI): GI50 on 3T3 cells divided by GI50 on 786-0; for GI50: Homo sapiens, 786-0 cells, SRB assay, read-out: growth inhibition (GI50)
Excerpt: (§1) MCF7 (ATCC HTB-22, breast adenocarcinoma), 786-0 (ATCC CRL-1932, renal cell adenocarcinoma), PC-03 (ATCC CRL-1435, prostatic adenocarcinoma), HT-29 (ATCCHTB-38, colorectal adenocarcinoma), and HEP2 (ATCC CCL-23, laryngeal carcinoma) cells donated by Dr. João Ernesto de Carvalho (CPQBA – UNICAMP), and NIH/3T3 cells (ATCC CRL-1658, mouse embryonic fibroblast), purchased from the Rio de Janeiro Cell Bank, were used for the evaluation of cytotoxic activity. Cell maintenance and treatment were performed as described by Freshney. The sulforhodamine B (SRB) assay was carried out according to Brandão et al. and Bogo et al..
(§2) The selectivity index (SI) measures a compound’s ability to target a neoplastic cell line rather than a normal cell line, indicating its potential for use in clinical trials. In the present study, the SI of each substance was calculated as the quotient of its GI50 value for normal NIH/3T3 cells divided by the GI50 value for a neoplastic cell line. SI values greater than 3.0 were considered significant.

[2] = system: MCF7 (breast carcinoma) cells; experiment: sulforhodamine B (SRB) cytotoxicity assay, MCF7; format: cell-based; conditions: for selectivity index (SI): GI50 on 3T3 cells divided by GI50 on MCF7; for GI50: Homo sapiens, MCF7 cells, SRB assay, read-out: growth inhibition (GI50)
Excerpt: as §1, §2

[3] = system: HT-29 (colon carcinoma) cells; experiment: sulforhodamine B (SRB) cytotoxicity assay, HT-29; format: cell-based; conditions: for selectivity index (SI): GI50 on 3T3 cells divided by GI50 on HT-29; for GI50: Homo sapiens, HT-29 cells, SRB assay, read-out: growth inhibition (GI50)
Excerpt: as §1, §2

[4] = system: PC-03 (prostate carcinoma) cells; experiment: sulforhodamine B (SRB) cytotoxicity assay, PC-03; format: cell-based; conditions: for selectivity index (SI): GI50 on 3T3 cells divided by GI50 on PC-03; for GI50: PC-03 cells, SRB assay, read-out: growth inhibition (GI50)
Excerpt: as §1, §2

[5] = system: HEP2 (laryngeal carcinoma) cells; experiment: sulforhodamine B (SRB) cytotoxicity assay, HEP2; format: cell-based; conditions: for selectivity index (SI): GI50 on 3T3 cells divided by GI50 on HEP2; for GI50: Homo sapiens, HEp-2, HEP2 cells, SRB assay, read-out: growth inhibition (GI50)
Excerpt: as §1, §2

[6] = system: B16-F10 (murine melanoma) cells; experiment: sulforhodamine B (SRB) cytotoxicity assay, B16-F10; format: cell-based; conditions: for selectivity index (SI): GI50 on 3T3 cells divided by GI50 on B16-F10; for GI50: Mus musculus, B16-F10 cells, SRB assay, read-out: growth inhibition (GI50)
Excerpt: [Worded in the source for another cell line; this cell line is reported under the same test.] as §1, §2

[7] = system: UACC-62 (human melanoma) cells; experiment: sulforhodamine B (SRB) cytotoxicity assay, UACC-62; format: cell-based; conditions: for selectivity index (SI): GI50 on 3T3 cells divided by GI50 on UACC-62; for GI50: Homo sapiens, UACC-62 cells, SRB assay, read-out: growth inhibition (GI50)
Excerpt: [Worded in the source for another cell line; this cell line is reported under the same test.] as §1, §2

[8] = system: NIH/3T3 (mouse embryonic fibroblast) cells; experiment: sulforhodamine B (SRB) cytotoxicity assay, NIH/3T3 normal cells; format: cell-based; conditions: for GI50: Mus musculus, NIH3T3, NIH/3T3 normal cells, SRB assay, read-out: growth inhibition (GI50)
Excerpt: as §1, §2

[9] = system: tested tumor cells (786-0, MCF7, HT-29, PC-03, HEP2, B16-F10, UACC-62); experiment: sulforhodamine B (SRB) cytotoxicity assay, results stated over several cell lines; format: cell-based; conditions: for cytotoxic activity in words: cell lines as named in the quoted words
Excerpt: as §1, §2

[10] = listed as 8′-O-isopropyl-norstictic acid

| melting point [°C] | SMILES | selectivity index (SI) [1] | GI50 [1] [µM] | selectivity index (SI) [2] | GI50 [2] [µM] | selectivity index (SI) [3] | GI50 [3] [µM] | selectivity index (SI) [4] | GI50 [4] [µM] | selectivity index (SI) [5] | GI50 [5] [µM] | selectivity index (SI) [6] | GI50 [6] [µM] | selectivity index (SI) [7] | GI50 [7] [µM] | GI50 [8] [µM] | cytotoxic activity in words [9] | further results |
| --- | --- | --- | --- | --- | --- | --- | --- | --- | --- | --- | --- | --- | --- | --- | --- | --- | --- | --- |
| 178 | CCCCCCOC1OC(=O)c2c(O)c(C)c3c(c21)Oc1c(C=O)c(O)cc(C)c1C(=O)O3 (stereo not drawn) [compound 5, 8′-O-n-hexyl-norstictic acid] | 1.75 | 31.4 | 5.76 | 9.53 | 7.66 | 7.16 | 7.60 | 7.23 | 9.2 | 5.96 | 0.97 | 56.3 | 1.06 | 51.6 | 54.9 | showed activity against MCF7, HT-29, PC-03, and HEP2 cells | GI50 ([9]; MCF7, HT-29, PC-03, and HEP2 cells, read-out: GI50, range): 5.96 to 9.53 µM |
| 185 | Cc1cc(O)c(C=O)c2c1C(=O)Oc1c(C)c(O)c3c(c1O2)C(OC(C)C)OC3=O (stereo not drawn) [compound 6, 8′-O-isopropyl-norstictic acid] | 0.86 | 50.1 | 0.73 | 59.3 | 0.86 | 50.2 | 33.8 | 1.28 | 5.56 | 7.78 | 4.48 | 9.65 | 7.0 | 6.2 | 43.2 | active against PC-03, HEP2, B16-F10, and UACC-62 cells | selectivity index (SI) [5, 10]: 5.5; selectivity index (SI) [6, 10]: 4.5; selectivity index (SI), range ([9]; PC-03, HEP2, B16-F10, and UACC-62 cells vs NIH/3T3): 4.48 to 33.8; GI50 ([9]; PC-03, HEP2, B16-F10, and UACC-62 cells, read-out: GI50, range): 1.28 to 9.65 µM |
| 170 | CCC(C)OC1OC(=O)c2c(O)c(C)c3c(c21)Oc1c(C=O)c(O)cc(C)c1C(=O)O3 (stereo not drawn) [compound 7, 8′-O-sec-butyl-norstictic acid] | 27.78 | 21.4 | 87.4 | 6.8 | 48.3 | 12.3 | 11.30 | 52.4 | 78.0 | 7.6 | 64.4 | 9.2 | 20.2 | 29.4 | 594 |  | effect on normal cells in words ([8]; 3T3 cells): lowest effect on 3T3 cells; selectivity index (SI), range over all tumor cells ([9]; all tested tumor cells vs NIH/3T3): 11.30–87.40; GI50 ([9]; all tested tumor cells, read-out: GI50, range over all tumor cells): 6.8 to 52.4 µM |
| 196 | Cc1cc(O)c(C=O)c2c1C(=O)Oc1c(C)c(O)c3c(c1O2)C(OC(C)(C)C)OC3=O (stereo not drawn) [compound 8, 8′-O-tert-butyl-norstictic acid] | 0.6 | 63.3 | 0.6 | 64.2 | 0.28 | 139 | 5.0 | 7.6 | 0.66 | 57.8 | 0.42 | 90.3 | 0.57 | 67.1 | 38.5 | active only against PC-03 cells; also recorded: low biological activity |  |
